Data: ChEMBL document CHEMBL1144809, “Synthesis and biological evaluation of histone deacetylase inhibitors that are based on FR235222: a cyclic tetrapeptide scaffold” (Bioorg Med Chem Lett, 2008)

Legend:
BXPC-3 = test: Cytotoxicity against human BxPC3 cells at 5 uM; format: functional; settings: read-out: GI
[1] = tested on: Histone deacetylase (Homo sapiens); test: Inhibition of HDAC at 200 uM relative to control

SMILES | inhibition [1] [%] | inhibition of growth at 5 µM (BXPC-3) [%]
CCC(=O)CCCCC[C@@H]1NC(=O)[C@H]2CCCCN2C(=O)[C@H]([C@@H](C)CC)NC(=O)[C@H](Cc2cn(OC)c3ccccc23)NC1=O [APICIDIN] | – | 98
CC[C@@H]1NC(=O)[C@H](CCCNC(=N)N)NC(=O)[C@H]2CCCN2C(=O)[C@@H](Cc2ccccc2)NC1=O | 97 | 17
CC[C@@H]1NC(=O)[C@H](CCCCNC(C)=O)NC(=O)[C@H]2CCCN2C(=O)[C@H](Cc2ccccc2)N(C)C1=O | 86 | 19

The next lines start with results.

inhibition [1] [%] | SMILES | inhibition of growth at 5 µM (BXPC-3) [%]
83 | CC[C@@H]1NC(=O)[C@H](CCCNC(=N)N)NC(=O)[C@H]2CCCN2C(=O)[C@@H]2Cc3ccccc3CN2C1=O | 0
38 | CC[C@@H]1NC(=O)[C@H](CCCCNC(C)=O)NC(=O)[C@H]2CCCN2C(=O)[C@H](Cc2ccccc2)NC1=O | 38
97 | CC[C@@H]1NC(=O)[C@H](CCCNC(=N)N)NC(=O)[C@H]2CCCN2C(=O)[C@H](Cc2ccccc2)NC1=O | 27
98 | CC[C@@H]1NC(=O)[C@H](CCCNC(=N)N)NC(=O)[C@H]2CCCCN2C(=O)[C@@H](Cc2ccccc2)NC1=O | 20
